The values below come from patent publication US20250163057A1, “DCN-1 MODULATING COMPOUNDS AND METHODS OF USE THEREOF” (Cellarity, Inc., priority 2023, published 2025).

Read-outs that look alike come from different tables or passages of the source.

Test [1] relates to fetal hemoglobin gene HBG1. Kind of test: HBG1 Nanostring Assay in CD34+ HSPC erythroid differentiation culture. The test is classed as cell-based, human. As to conditions: for Nanostring Ymax obs (%): relative to a control compound (C1); for EC50: Homo sapiens, 240 h, HBG1 induction, Day10 of erythroid differentiation. The method in brief: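 HBG1 counts came from direct nCounter hybridization (67° C, 22 h) of day-10 lysates, normalized to ERCC positive controls and a housekeeping gene, giving EC50 and Ymax versus a reference compound. Compounds in 0.1% DMSO were present from day −2 while cells underwent EPO/SCF/IL-3 erythroid differentiation, with IL-3 dropped at day 7, at 37° C.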

Test [2] has as its system Cullin-3 (CUL3) neddylation. Description: AlphaLISA assay for Cullin-3 (CUL3) neddylation in TF 1 cells. Type of test: cell-based. As to conditions: Homo sapiens, TF-1, 3 h, 3 hours treatment. In outline: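 Neddylated CUL3 was quantified by AlphaLISA in lysates of TF 1 cells exposed for 3 h to test compound in IMDM without supplements. Percent inhibition set between vehicle and 1 μM DI-1548 positive control; IC50 derived by Hill-equation fitting of dose-response curves.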
In general terms: In Alpha technology, singlet oxygen from a donor bead excites a nearby acceptor bead.

A further test addresses DCN1 protein (Homo sapiens (Human), UniProt Q96GG9). Kind of test: Intact Protein MS Analysis with the RapidFire-TOF System (covalent adduct formation). The test is classed as binding. As to conditions: MS Emax; 400 nM DCN1, 3 hours at room temperature. In outline: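 Tag-cleaved human DCN1 (400 nM) expressed in E. coli, in 25 mM Tris-HCl, 200 mM NaCl, 1 mM DTT, was incubated with 11 compound concentrations for 3 h at room temperature and quenched with 0.2% formic acid. Intact-protein Q-TOF MS with deconvolution detected the compound adduct mass.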

Test [3] concerns the target DCN1 (DCUND1) protein PONY domain (Homo sapiens (Human), UniProt Q96GG9). Kind of test: TR-FRET assay, DCN1 binding with FAM-labeled probe. The method in brief:
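First, the E. coli-derived PONY domain was biotinylated and paired with streptavidin Tb cryptate. Compounds in 0.1% DMSO were then added to DCN1 and FAM-probe (5 nM/20 nM, or 0.31 nM/900 nM total with 800 nM unlabelled) in TritonX, 200 mM NaCl buffer. Finally, TR-FRET ratios were recorded at 1, 5 and 24 hrs.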
On the technique in general: In TR-FRET formats the signal depends on donor and acceptor labels being close together.

Where [4] appears, read: TR FRET IC50 1 hr (nM), 1 hr after treatment with compound.
Setting [5] is: 24 hr after treatment with compound, read-out: TR FRET IC50 24 hr.

Chain of DCN1 protein (Q96GG9 whole entry): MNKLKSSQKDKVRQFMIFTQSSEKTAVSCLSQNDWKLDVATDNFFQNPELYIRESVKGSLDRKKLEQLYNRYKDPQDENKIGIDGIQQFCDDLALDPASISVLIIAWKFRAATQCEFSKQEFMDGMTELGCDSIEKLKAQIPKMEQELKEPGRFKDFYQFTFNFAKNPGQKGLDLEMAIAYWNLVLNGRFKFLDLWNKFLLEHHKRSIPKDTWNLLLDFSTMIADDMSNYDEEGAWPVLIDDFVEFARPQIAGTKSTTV
Chain of DCN1 (DCUND1) protein PONY domain (Q96GG9 60-248): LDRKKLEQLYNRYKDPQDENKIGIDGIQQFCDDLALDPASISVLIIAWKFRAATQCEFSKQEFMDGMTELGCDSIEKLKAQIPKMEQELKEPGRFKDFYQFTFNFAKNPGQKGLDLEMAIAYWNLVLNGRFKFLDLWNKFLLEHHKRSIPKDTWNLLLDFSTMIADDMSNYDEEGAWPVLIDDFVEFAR

Consider `C=CC(=O)NCc1nn(-c2ccccc2)c2c1[C@H](c1ccc(F)cc1)[C@H](NC(=O)c1cccc(C(F)(F)F)c1)C(=O)N2CC` (racemic) [Compound I-202], for which, in test [1], the “Nanostring Ymax obs (%)” value is “+ (Nanostring Ymax greater than or equal to 0.0 and less than or equal to 50.0)”. Besides, the IC50 in test [2] lay in the range of 0.1 to 1 µM. In addition, the “% Adduct Formation” value at DCN1 protein was “+ (MS Emax % adduct formation greater than or equal to 0.0 and less than or equal to 30.0)”.

Consider `C#CC(=O)NCc1nn(-c2ccccc2)c2c1[C@H](c1ccc(F)cc1)[C@H](NC(=O)c1cccc(C(F)(F)F)c1)C(=O)N2CC` (racemic) [Compound I-181], for which, in test [1], the EC50 was ≤ 0.1 µM; the “Nanostring Ymax obs (%)” value is “+ (Nanostring Ymax greater than or equal to 0.0 and less than or equal to 50.0)”. The IC50 in test [2] is ≤ 0.1 µM. The “% Adduct Formation” value on DCN1 protein was “+ (MS Emax % adduct formation greater than or equal to 0.0 and less than or equal to 30.0)”.

Consider `C#CC(=O)N[C@H](C)c1nn(-c2ccccc2)c2c1[C@H](c1ccc(F)cc1)[C@H](NC(=O)c1cccc(C(F)(F)F)c1)C(=O)N2CC` (mixture of isomers) [Compound I-236], for which, in test [1], the EC50 is ≤ 0.1 µM; the “Nanostring Ymax obs (%)” value was “+ (Nanostring Ymax greater than or equal to 0.0 and less than or equal to 50.0)”. Also, the IC50 in test [2] is ≤ 0.1 µM. For the same compound, at DCN1 protein, the “% Adduct Formation” value was “+++ (MS Emax % adduct formation greater than 80.0 and less than or equal to 100.0)”.

On to `C=C(CN(C)C)C(=O)NCc1nn(-c2ccccc2)c2c1[C@H](c1ccc(F)cc1)[C@H](NC(=O)c1cccc(C(F)(F)F)c1)C(=O)N2CC` (racemic) [Compound I-18], for which, in test [1], the EC50 was in the range of 0.1 to 1 µM; the “Nanostring Ymax obs (%)” value was “+ (Nanostring Ymax greater than or equal to 0.0 and less than or equal to 50.0)”. In test [2], the IC50 was ≤ 0.1 µM. For the same compound, at DCN1 protein, the “% Adduct Formation” value was “+++ (MS Emax % adduct formation greater than 80.0 and less than or equal to 100.0)”.

For the compound `CCN1C(=O)[C@@H](NC(=O)c2cccc(C(F)(F)F)c2)[C@@H](c2ccc(F)cc2)c2c(Cn3sccc3=O)nn(-c3ccccc3)c21` (racemic) [Compound I-192, rac-N-((4R,5R)-7-ethyl-4-(4-fluorophenyl)-6-oxo-3-((3-oxoisothiazol-2(3H)-yl)methyl)-1-phenyl-4,5,6,7-tetrahydro-1H-pyrazolo[3,4-b]pyridine-5-yl)-3-(trifluoromethyl)benzamide], in test [1], the EC50 was in the range of 0.1 to 1 µM; the “Nanostring Ymax obs (%)” value was “+ (Nanostring Ymax greater than or equal to 0.0 and less than or equal to 50.0)”. This compound came in with an IC50 in test [2] of 0.1 to 1 µM. Also, the “% Adduct Formation” value at DCN1 protein was “++ (MS Emax % adduct formation greater than 30.0 and less than or equal to 80.0)”.

On to `CCN1C(=O)[C@@H](NC(=O)c2cccc(C(F)(F)F)c2)[C@@H](c2ccc(F)cc2)c2c([C@@H](C)NC(=O)C(C)Br)nn(-c3ccccc3)c21` (stereo in doubt) [Compound I-197], for which, in test [1], the EC50 is > 1 µM; the “Nanostring Ymax obs (%)” value was “++ (Nanostring Ymax greater than 50.0 and less than or equal to 100.0)”. In test [2], the IC50 is > 1 µM. Further, on DCN1 protein, the “% Adduct Formation” value was “+ (MS Emax % adduct formation greater than or equal to 0.0 and less than or equal to 30.0)”.

Take `C=C(CN(C)C)C(=O)N(C)Cc1nn(-c2ccccc2)c2c1[C@H](c1ccc(F)cc1)[C@H](NC(=O)c1cccc(C(F)(F)F)c1)C(=O)N2CC` (racemic) [Compound I-178]: in test [1], the EC50 is 0.1 to 1 µM; the “Nanostring Ymax obs (%)” value was “++ (Nanostring Ymax greater than 50.0 and less than or equal to 100.0)”. Moreover, the IC50 in test [2] is ≤ 0.1 µM. For the same compound, the “% Adduct Formation” value at DCN1 protein is “+++ (MS Emax % adduct formation greater than 80.0 and less than or equal to 100.0)”.

For `CCN1C(=O)[C@@H](NC(=O)c2cccc(C(F)(F)F)c2)[C@H](c2ccc(F)cc2)c2c(CN(C)C(=O)/C=C/C(=O)OC)nn(-c3ccccc3)c21` (racemic) [Compound I-141, methyl (˜{E})-4-[[(4˜{S},5˜{S})-7-ethyl-4-(4-fluorophenyl)-6-oxo-1-phenyl-5-[[3-(trifluoromethyl)benzoyl]amino]-4,5-dihydropyrazolo[3,4-b]pyridine-3-yl]methyl-methyl-amino]-4-oxo-but-2-enoate], in test [1], the EC50 is > 1 µM; the “Nanostring Ymax obs (%)” value was “++ (Nanostring Ymax greater than 50.0 and less than or equal to 100.0)”. For the same compound, in test [3] (setting [4]), the IC50 lay within 200 to 1000 nM. In addition, the “% Adduct Formation” value on DCN1 protein is “+ (MS Emax % adduct formation greater than or equal to 0.0 and less than or equal to 30.0)”.

On to `CCN1C(=O)[C@@H](NC(=O)c2cccc(C(F)(F)F)c2)[C@@H](c2ccc(F)cc2)c2c(C/C=C/C(=O)NC)nn(-c3ccccc3)c21` (racemic) [Compound I-38], for which, in test [1], the EC50 is > 1 µM; the “Nanostring Ymax obs (%)” value was “+ (Nanostring Ymax greater than or equal to 0.0 and less than or equal to 50.0)”. For the same compound, in test [3] (setting [5]), the IC50 was 1000 to 3000 nM. Further, the IC50 in test [3] (setting [4]) lay in the range of 1000 to 3000 nM. Further, on DCN1 protein, the “% Adduct Formation” value is “+ (MS Emax % adduct formation greater than or equal to 0.0 and less than or equal to 30.0)”.

`C=C(CN1CCC(F)(F)C1)C(=O)NCc1nn(-c2ccccc2)c2c1[C@H](c1ccc(F)cc1)[C@H](NC(=O)c1cccc(C(F)(F)F)c1)C(=O)N2CC` (racemic) [Compound I-72] yielded an EC50 in test [1] of 0.1 to 1 µM. In test [1], the “Nanostring Ymax obs (%)” value is “++ (Nanostring Ymax greater than 50.0 and less than or equal to 100.0)”. In addition, the IC50 in test [3] (setting [5]) and in test [3] (setting [4]) was 200 to 1000 nM throughout. The “% Adduct Formation” value on DCN1 protein is “+ (MS Emax % adduct formation greater than or equal to 0.0 and less than or equal to 30.0)”.

In the case of `CCN1C(=O)[C@@H](NC(=O)c2cccc(C(F)(F)F)c2)[C@@H](c2ccc(F)cc2)c2c(NC(=O)C3(C#N)CCOCC3)nn(-c3ccccc3)c21` (racemic) [Compound I-66], in test [1], the EC50 is > 1 µM; the “Nanostring Ymax obs (%)” value was “+ (Nanostring Ymax greater than or equal to 0.0 and less than or equal to 50.0)”. In addition, the IC50 in test [3] (setting [5]) is 200 to 1000 nM. The “% Adduct Formation” value at DCN1 protein was “+ (MS Emax % adduct formation greater than or equal to 0.0 and less than or equal to 30.0)”.

Regarding `CCN1C(=O)[C@@H](NC(=O)c2cccc(C(F)(F)F)c2)[C@@H](c2ccc(F)cc2)c2c(C3(NC#N)CC3)nn(-c3ccccc3)c21` (racemic) [Compound I-87], in test [1], the EC50 is 0.1 to 1 µM; the “Nanostring Ymax obs (%)” value is “++ (Nanostring Ymax greater than 50.0 and less than or equal to 100.0)”. Moreover, in test [3] (setting [5]), the IC50 is ≤ 200 nM. For the same compound, the IC50 in test [3] (setting [4]) lay within 200 to 1000 nM. Further, the “% Adduct Formation” value on DCN1 protein is “+++ (MS Emax % adduct formation greater than 80.0 and less than or equal to 100.0)”.

Consider `CCN1C(=O)[C@@H](NC(=O)c2cccc(C(F)(F)F)c2)[C@@H](c2ccc(F)cc2)c2c(CNC(=O)C3=C(C(=O)OC)CC3)nn(-c3ccccc3)c21` [Compound I-119], for which, in test [1], the EC50 fell in the range of 0.1 to 1 µM; the “Nanostring Ymax obs (%)” value is “++ (Nanostring Ymax greater than 50.0 and less than or equal to 100.0)”. Further, in test [3] (setting [5]), the IC50 was in the range of 200 to 1000 nM. Besides, the IC50 in test [3] (setting [4]) lay in the range of 200 to 1000 nM. Also, the “% Adduct Formation” value at DCN1 protein was “+ (MS Emax % adduct formation greater than or equal to 0.0 and less than or equal to 30.0)”.

The term IC50 denotes the concentration that inhibits the measured activity by half. Broadly, the EC50 is the concentration giving half of the maximal effect. Low values mean greater potency, high ones weaker potency.
